Counter-ions that a name gives are not always drawn.
Test system: HCT116
Conditions: 72 h
Procedure, shortened: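 In 1536-well plates, 250 HCT116 cells per well were seeded and left for 5 h to attach. Luminescence from CellTiter-Glo was set against vehicle (0%) and positive control (-100%), and pattern correction was applied. IC50 and maximal efficacy come from four-parameter Hill fitting.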

SMILES | IC50 cell viability (ICRF193 0 nM) [µM] | IC50 cell viability (ICRF193 200 nM) [µM]
CCCCCCCCCCCCCCCCOc1nc2ccc(C)cc2c(=O)o1 [Cetilistat] | > 45.8 | > 45.8
Nc1ncnc2c1ncn2[C@@H]1O[C@H](COP(=O)(O)OP(=O)(O)OP(=O)(O)O)[C@@H](O)[C@H]1O [ATP (disodium salt)] | > 45.8 | > 45.8
NC[C@@H]1O[C@H](O[C@H]2[C@@H](O)[C@H](O[C@@H]3[C@@H](O)[C@H](N)C[C@H](N)[C@H]3O[C@H]3O[C@H](CO)[C@@H](O)[C@H](O)[C@H]3N)O[C@@H]2CO)[C@H](N)[C@@H](O)[C@@H]1O [PAROMOMYCIN SULFATE] | > 45.8 | > 45.8
CC(=O)N(CC(=O)N(C)C)c1ccccc1 [Phenylacetylglycine dimethylamide] | > 45.8 | > 45.8
C[N+]12CCCCC1CCC(=C(c1cccs1)c1cccs1)C2 (stereo not given) [Tiquizium bromide] | > 45.8 | > 45.8
CCCCCCCCCCCCCCCC(=O)OC(C)C [Hexadecanoic acid, 1-methylethyl ester] | > 45.8 | > 45.8
Cc1c(C(C)C)c(=O)n(-c2ccccc2)n1C [Propyphenazone] | > 45.8 | > 45.8
CCOC(=O)OC(C)OC1=C(C(=O)Nc2ccccn2)N(C)S(=O)(=O)c2ccccc21 (stereo not given) [Ampiroxicam] | > 45.8 | > 45.8
C/C=C/c1ccc(OC)cc1 [Anethole] | > 45.8 | > 45.8
CCOC(=O)c1ccc(O)cc1 [Ethylparaben] | > 45.8 | > 45.8
CC(=O)O[C@]1(C(C)=O)CC[C@H]2[C@@H]3C=C(Cl)C4=CC(=O)[C@@H]5C[C@@H]5[C@]4(C)[C@H]3CC[C@@]21C [Cyproterone acetate] | > 45.8 | > 45.8
O=C(OCC(O)CO)c1ccccc1Nc1ccnc2cc(Cl)ccc12 (stereo not given) [Glafenine hydrochloride] | > 45.8 | > 45.8
CCC1Nc2cc(Cl)c(S(N)(=O)=O)cc2S(=O)(=O)N1 (stereo not given) [Ethiazide] | > 45.8 | > 45.8
N[C@@H](CSCCCO)C(=O)O [Fudosteine] | > 45.8 | > 45.8
COc1ccccc1OCC(O)CO (stereo not given) [Guaifenesin] | > 45.8 | > 45.8
CN(C)c1cc(NC(=O)CNC(C)(C)C)c(O)c2c1C[C@H]1C[C@H]3[C@H](N(C)C)C(O)=C(C(N)=O)C(=O)[C@@]3(O)C(O)=C1C2=O [Tigecycline] | > 45.8 | > 45.8
O=P(O)(O)C(Cl)(Cl)P(=O)(O)O [Clodronate] | > 45.8 | > 45.8
C[C@H](N)[C@H](O)c1cccc(O)c1 [Metaraminol bitartrate] | > 45.8 | > 45.8
CO/N=C(\C(=O)N[C@@H]1C(=O)N2C(C(=O)O)=C(COC(C)=O)CS[C@H]12)c1csc(N)n1 [Cefotaxime sodium salt] | > 45.8 | > 45.8
O=C(OCc1ccccc1)c1ccccc1 [Benzyl benzoate] | > 45.8 | > 45.8
CCCNC(C)C(=O)Nc1ccccc1C (stereo not given) [Prilocaine hydrochloride] | > 45.8 | > 45.8
N=C(N)NCC1COC2(CCCCC2)O1 (stereo not given) [Guanadrel sulfate] | > 45.8 | > 45.8
CO[C@@]1(NC(=O)CSC[C@@H](N)C(=O)O)C(=O)N2C(C(=O)O)=C(CSc3nnnn3C)CS[C@@H]21 [Cefminox sodium] | > 45.8 | > 45.8
C[C@]12CC[C@H](OS(=O)(=O)O)CC1=CC[C@@H]1[C@@H]2CC[C@]2(C)C(=O)CC[C@@H]12 [Dehydroepiandrosterone Sulfate (sodium salt)] | > 45.8 | > 45.8
CC(=O)O[C@]1(C(C)=O)CC[C@H]2[C@@H]3C[C@H](C)C4=CC(=O)CC[C@]4(C)[C@H]3CC[C@@]21C [Medroxyprogesterone acetate] | > 45.8 | > 45.8
N#C[C@@H]1CCCN1C(=O)CNC12CC3CC(CC(O)(C3)C1)C2 [Vildagliptin] | > 45.8 | > 45.8
CCOc1ccc(Cc2cc([C@]34OC[C@](CO)(O3)[C@@H](O)[C@H](O)[C@H]4O)ccc2Cl)cc1 | > 45.8 | > 45.8
CC[C@H](C)[C@H](N)C1=N[C@H](C(=O)N[C@@H](CC(C)C)C(=O)N[C@H](CCC(=O)O)C(=O)N[C@H](C(=O)N[C@H]2CCCCNC(=O)[C@H](CC(N)=O)NC(=O)[C@@H](CC(=O)O)NC(=O)[C@H](Cc3cnc[nH]3)NC(=O)[C@@H](Cc3ccccc3)NC(=O)[C@H]([C@@H](C)CC)NC(=O)[C@@H](CCCN)NC2=O)[C@@H](C)CC)CS1 [Bacitracin] | > 45.8 | > 45.8
CN(C)C(=O)Oc1cc(OC(=O)N(C)C)cc(C(O)CNC(C)(C)C)c1 (stereo not given) [Bambuterol hydrochloride] | > 45.8 | > 45.8
CCCCCCCCCCCCCCCCC(C(=O)O)C(O)(CC(=O)O)C(=O)O (stereo not given) [Agaric acid] | > 45.8 | > 45.8

Source: the supplement of paper PMC12137928
